According to US8309121B2, “Dermatological compositions comprising avermectin nanocapsules” (Galderma S.A., priority 2006, dated 2012):

Assays:
[1] = Solubility of ivermectin in various excipients; type: physicochemical
Source text: (§1) There are numerous excipients used in the formulation of emulsions or liposomes which result in degradation of ivermectin. The Table below presents the results of tests of stability and solubility of ivermectin in various excipients: […]

[2] = Stability of ivermectin in various excipients; type: physicochemical; settings: for T 1 month 40° C. content / T 1 month Tambient content / T 3 months 40° C. content / T 3 months Tambient content: T0 in mg/g; for T 1 month 40° C. (% in brackets) / T 1 month Tambient (% in brackets) / T 3 months 40° C. (% in brackets) / T 3 months Tambient (% in brackets): relative to T0
Source text: as §1

[3] = cited from earlier work
[4] = in ceteareth-25, ceteareth-6, PEG-8-distearate, PEG-8-stearate, PEG-660-OH-stearate, PEG-4000, polyoxyethylene-10, glycerol monostearate S/E, propylene glycol dicaprylate, cetearyl octanoate, polyglycerol-3-diolate, C18-C36 triglycerides, Gamma cyclodextrin, soybean lecithin, cholesterol, stearic acid; cited from earlier work
[5] = in Labrafac Hydro WL1219 (caprylic/capric triglyceride PEG-4 esters)
[6] = in Mygliol 812 (medium-chain triglycerides of caprylic and capric acids)
[7] = in Solutol HS15 (PEG-15 hydroxystearate)
[8] = in Labrafac Hydro WL1219, 1 month
[9] = in Lipoid S75-3 + benzyl alcohol, 1 month
[10] = in Lipoid S75-3 + benzyl alcohol
[11] = in Ph90H + benzyl alcohol, 1 month

ivermectin
Solubility max ([1]; in Benzyl alcohol): 32.8 mg/g
Solubility max ([1]; in Benzyl benzoate): 44.2 mg/g
Solubility max ([1]; in Crodamol DA): 94.2 mg/g
Solubility max [1, 5]: 70 mg/g
Solubility max ([1]; in Miglyol 812): 17.9 mg/g
Solubility (in words) [1, 6]: relatively low solubility
Solubility max [1, 7]: 10.8 mg/g
Degradation by hydrogenated lecithins (in words) ([2]; hydrogenated lecithins, studies of Example 1): do not degrade
T 1 month 40° C. content ([2]; in Benzyl alcohol, 1 month): 9.7
T 1 month 40° C. (% in brackets) ([2]; in Benzyl alcohol, 1 month): (98%)
T 1 month Tambient content ([2]; in Benzyl alcohol, 1 month): 9.8
T 1 month Tambient (% in brackets) ([2]; in Benzyl alcohol, 1 month): (99%)
T0 content ([2]; in Benzyl alcohol): 9.9 mg/g
Stability (in words) ([2]; in Crodamol DA): Stable over 1 month
T0 content [2, 5]: 9.0 mg/g
T 1 month 40° C. content [2, 8]: 6.7
T 1 month 40° C. (% in brackets) [2, 8]: (75%)
T 1 month Tambient content [2, 8]: 8.5
T 1 month Tambient (% in brackets) [2, 8]: (95%)
T 3 months 40° C. content ([2]; in Labrafac Hydro WL1219): 4.2
T 3 months 40° C. (% in brackets) ([2]; in Labrafac Hydro WL1219): (47%)
T 3 months Tambient content ([2]; in Labrafac Hydro WL1219): 6.3
T 3 months Tambient (% in brackets) ([2]; in Labrafac Hydro WL1219): (70%)
T0 content ([2]; in Labrasol (PEG-8 caprylic/capric glycerides)): 8.1 mg/g
T 1 month 40° C. content ([2]; in Labrasol, 1 month): 7.9
T 1 month 40° C. (% in brackets) ([2]; in Labrasol, 1 month): (98%)
T 1 month Tambient content ([2]; in Labrasol, 1 month): 8.1
T 1 month Tambient (% in brackets) ([2]; in Labrasol, 1 month): (100%)
T 3 months 40° C. content ([2]; in Labrasol): 5.6
T 3 months 40° C. (% in brackets) ([2]; in Labrasol): (69%)
T 3 months Tambient content ([2]; in Labrasol): 8.1
T 3 months Tambient (% in brackets) ([2]; in Labrasol): (100%)
T 1 month 40° C. content [2, 9]: 9.5
T 1 month 40° C. (% in brackets) [2, 9]: (101%)
T 1 month Tambient content [2, 9]: 9.5
T 1 month Tambient (% in brackets) [2, 9]: (101%)
T 3 months 40° C. content [2, 10]: 9.7
T 3 months 40° C. (% in brackets) [2, 10]: (103%)
T 3 months Tambient content [2, 10]: 9.2
T 3 months Tambient (% in brackets) [2, 10]: (98%)
T0 content [2, 10]: 9.4 mg/g
T 1 month 40° C. content ([2]; in Miglyol 812, 1 month): 8.2
T 1 month 40° C. (% in brackets) ([2]; in Miglyol 812, 1 month): (94%)
T 1 month Tambient content ([2]; in Miglyol 812, 1 month): 8.3
T 1 month Tambient (% in brackets) ([2]; in Miglyol 812, 1 month): (95%)
T 3 months 40° C. content ([2]; in Miglyol 812): 8.4
T 3 months 40° C. (% in brackets) ([2]; in Miglyol 812): (96%)
T 3 months Tambient content ([2]; in Miglyol 812): 8.3
T 3 months Tambient (% in brackets) ([2]; in Miglyol 812): (96%)
T0 content ([2]; in Miglyol 812): 8.7 mg/g
Stability (in words) [2, 6]: not perfectly stable
T0 content ([2]; in Ph90H (Phospholipon 90H) + benzyl alcohol): 9.25 mg/g
T 1 month 40° C. content [2, 11]: 9.5
T 1 month 40° C. (% in brackets) [2, 11]: (103%)
T 1 month Tambient content [2, 11]: 9.7
T 1 month Tambient (% in brackets) [2, 11]: (105%)
T0 content [2, 7]: 9.8 mg/g
degradation at 1 month ([2]; in Solutol HS15, 1 month): 28%
T 1 month 40° C. content ([2]; in Solutol HS15, 1 month): 7.1
T 1 month 40° C. (% in brackets) ([2]; in Solutol HS15, 1 month): (72%)
T 1 month Tambient content ([2]; in Solutol HS15, 1 month): 9.4
T 1 month Tambient (% in brackets) ([2]; in Solutol HS15, 1 month): (95%)
Stability in a hydrophilic medium (in words) ([3]; hydrophilic medium): degraded
solubility in water ([3]; water): 5 µg/mL
Stability in lipophilic excipients (in words) [4]: degradation
